Among the data in ChEMBL document CHEMBL2074214, “Penetration of amitriptyline, but not of fluoxetine, into brain is enhanced in mice with blood-brain barrier deficiency due to mdr1a P-glycoprotein gene disruption” (Neuropsychopharmacology, 2000) are Activity values, retold here.

The target of this data set is ATP-dependent translocase ABCB1 (Mus musculus, UniProt P21447). The data set is described as follows: TP_TRANSPORTER: increase in brain concentration in mdr1a(-/-) mouse. Type of data set: functional, organism-based. To be noted: in vivo.

Molecules are shown by their SMILES.

ATP-dependent translocase ABCB1, sequence (P21447 whole entry): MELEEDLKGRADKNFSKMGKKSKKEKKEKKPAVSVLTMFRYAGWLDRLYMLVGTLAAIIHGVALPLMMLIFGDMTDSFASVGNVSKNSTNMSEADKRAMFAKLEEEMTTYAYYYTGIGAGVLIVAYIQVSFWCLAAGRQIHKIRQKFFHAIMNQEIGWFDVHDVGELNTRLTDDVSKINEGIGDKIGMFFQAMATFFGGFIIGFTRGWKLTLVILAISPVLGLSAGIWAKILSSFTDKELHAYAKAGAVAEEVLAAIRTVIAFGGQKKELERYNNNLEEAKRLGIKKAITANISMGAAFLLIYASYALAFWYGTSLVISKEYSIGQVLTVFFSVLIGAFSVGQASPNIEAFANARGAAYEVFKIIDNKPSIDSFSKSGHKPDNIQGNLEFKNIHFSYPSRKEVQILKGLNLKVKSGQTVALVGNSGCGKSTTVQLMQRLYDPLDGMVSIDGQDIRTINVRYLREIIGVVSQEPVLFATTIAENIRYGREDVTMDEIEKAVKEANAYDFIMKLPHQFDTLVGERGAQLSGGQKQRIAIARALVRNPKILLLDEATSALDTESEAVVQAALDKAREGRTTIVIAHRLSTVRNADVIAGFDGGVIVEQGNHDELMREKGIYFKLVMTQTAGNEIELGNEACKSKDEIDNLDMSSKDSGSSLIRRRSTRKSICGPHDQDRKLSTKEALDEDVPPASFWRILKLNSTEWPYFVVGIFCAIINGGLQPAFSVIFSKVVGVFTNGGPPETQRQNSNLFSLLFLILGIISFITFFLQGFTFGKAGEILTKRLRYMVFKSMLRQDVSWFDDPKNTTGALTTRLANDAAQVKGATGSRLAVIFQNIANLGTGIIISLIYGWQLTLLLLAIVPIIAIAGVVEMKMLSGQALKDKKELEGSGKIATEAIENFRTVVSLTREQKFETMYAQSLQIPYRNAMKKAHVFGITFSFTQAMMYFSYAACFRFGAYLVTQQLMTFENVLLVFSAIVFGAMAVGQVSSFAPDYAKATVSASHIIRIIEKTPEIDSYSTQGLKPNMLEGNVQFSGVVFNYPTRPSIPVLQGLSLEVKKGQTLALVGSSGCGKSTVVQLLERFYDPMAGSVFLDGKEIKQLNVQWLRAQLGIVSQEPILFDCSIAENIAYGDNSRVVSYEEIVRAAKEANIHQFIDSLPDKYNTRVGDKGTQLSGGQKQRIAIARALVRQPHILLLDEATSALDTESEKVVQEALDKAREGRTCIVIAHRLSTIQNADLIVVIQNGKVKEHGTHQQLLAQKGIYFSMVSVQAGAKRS

Consider `CN(C)CCC=C1c2ccccc2CCc2ccccc21` [AMITRIPTYLINE], for which the Activity result was “substrate [+]”. In the case of `CNCCC=C1c2ccccc2CCc2ccccc21` [NORTRIPTYLINE], the Activity entry was “substrate [+]”.
